# According to ChEMBL document CHEMBL1909046, “DrugMatrix in vitro pharmacology data”:
# Legend:
# [1] = target: T1, Polyunsaturated fatty acid lipoxygenase ALOX15 (Oryctolagus cuniculus, UniProt P12530); assay: biochemical; assay type: tissue-based, Reticulocytes;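 also: inhibition of 15-lipoxygenase enzyme activity measured with linoleic acid as the substrate; in other assays of this panel Not Active means under 50% inhibition at 10 µM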
# T1 sequence (P12530 whole entry): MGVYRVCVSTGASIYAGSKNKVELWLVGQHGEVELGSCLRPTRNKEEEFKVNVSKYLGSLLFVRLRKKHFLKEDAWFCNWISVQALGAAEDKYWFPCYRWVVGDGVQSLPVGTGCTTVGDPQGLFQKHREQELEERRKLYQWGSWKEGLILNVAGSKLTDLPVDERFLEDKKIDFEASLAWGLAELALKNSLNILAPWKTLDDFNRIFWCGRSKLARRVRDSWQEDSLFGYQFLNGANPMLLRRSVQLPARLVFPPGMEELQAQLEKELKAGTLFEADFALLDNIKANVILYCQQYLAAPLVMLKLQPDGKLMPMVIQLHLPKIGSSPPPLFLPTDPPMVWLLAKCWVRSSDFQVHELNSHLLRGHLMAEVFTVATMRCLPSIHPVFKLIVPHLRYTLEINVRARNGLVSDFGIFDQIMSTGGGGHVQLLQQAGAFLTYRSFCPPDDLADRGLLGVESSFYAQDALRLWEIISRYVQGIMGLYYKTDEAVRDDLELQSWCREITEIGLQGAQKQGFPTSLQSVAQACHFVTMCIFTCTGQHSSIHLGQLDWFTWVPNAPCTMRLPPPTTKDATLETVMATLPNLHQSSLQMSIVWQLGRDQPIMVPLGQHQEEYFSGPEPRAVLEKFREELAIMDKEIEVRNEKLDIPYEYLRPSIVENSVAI
# [2] = target: Vascular endothelial growth factor receptor 1 (Homo sapiens, UniProt P17948); assay type: cell-based; settings: huvec; also: in other assays of this panel Not Active means under 50% inhibition at 10 µM
# [3] = target: Beta-3 adrenergic receptor (Homo sapiens, UniProt P13945); assay: DRUGMATRIX: Adrenergic beta3 radioligand binding (ligand: [125I] Cyanopindolol); assay type: cell membranes, HEK293, Membrane; settings: Not Active = under 50% inhibition at 10 µM
# Cathepsin G = target: T2, Cathepsin G (Homo sapiens, UniProt P08311); assay type: tissue-based; settings: neutrophil;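 also: inhibition of Cathepsin G enzyme activity, tested on an AMC-conjugated peptide substrate; in other assays of this panel Not Active means under 50% inhibition at 10 µM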
# T2 sequence (P08311 whole entry): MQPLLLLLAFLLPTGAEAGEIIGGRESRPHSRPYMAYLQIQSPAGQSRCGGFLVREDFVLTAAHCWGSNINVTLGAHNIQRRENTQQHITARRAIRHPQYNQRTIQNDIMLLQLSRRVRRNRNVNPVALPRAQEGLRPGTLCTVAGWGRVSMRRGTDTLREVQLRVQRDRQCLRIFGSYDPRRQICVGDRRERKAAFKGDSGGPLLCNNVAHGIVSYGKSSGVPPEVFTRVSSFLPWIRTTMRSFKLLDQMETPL
# [4] = DRUGMATRIX: Platelet-Derived Growth Factor (PDGF) radioligand binding (ligand: [125I] PDGF); assay type: cell-based; settings: nih3t3; Not Active = under 50% inhibition at 10 µM
# Calcitonin receptor = target: T3, Calcitonin receptor (Homo sapiens, UniProt P30988); assay type: cell membranes, Membrane; settings: t47d; also: in other assays of this panel Not Active means under 50% inhibition at 10 µM
# T3 sequence (P30988 whole entry): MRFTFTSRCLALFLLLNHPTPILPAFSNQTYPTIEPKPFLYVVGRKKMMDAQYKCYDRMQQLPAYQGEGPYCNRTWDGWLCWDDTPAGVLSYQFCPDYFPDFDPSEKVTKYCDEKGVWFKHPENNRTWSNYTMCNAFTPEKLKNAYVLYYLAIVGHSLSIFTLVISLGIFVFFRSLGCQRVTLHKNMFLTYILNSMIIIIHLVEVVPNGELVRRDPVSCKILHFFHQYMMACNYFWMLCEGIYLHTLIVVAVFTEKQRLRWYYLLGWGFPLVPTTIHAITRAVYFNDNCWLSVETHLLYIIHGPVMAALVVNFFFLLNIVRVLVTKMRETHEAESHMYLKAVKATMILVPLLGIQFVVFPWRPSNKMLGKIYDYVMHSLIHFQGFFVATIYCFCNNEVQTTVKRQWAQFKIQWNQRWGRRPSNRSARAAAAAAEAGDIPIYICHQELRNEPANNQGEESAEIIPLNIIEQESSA
# Cytochrome P450 2D6 = Cytochrome P450 2D6 (Homo sapiens, UniProt P10635); settings: bti-tn-5b1-4; also: in other assays of this panel Not Active means under 50% inhibition at 10 µM
# [5] = target: Prostaglandin G/H synthase 1 (Homo sapiens, UniProt P23219); assay: biochemical; assay type: tissue-based, Platelet
# Sequence of Prostaglandin G/H synthase 1 (P23219 whole entry): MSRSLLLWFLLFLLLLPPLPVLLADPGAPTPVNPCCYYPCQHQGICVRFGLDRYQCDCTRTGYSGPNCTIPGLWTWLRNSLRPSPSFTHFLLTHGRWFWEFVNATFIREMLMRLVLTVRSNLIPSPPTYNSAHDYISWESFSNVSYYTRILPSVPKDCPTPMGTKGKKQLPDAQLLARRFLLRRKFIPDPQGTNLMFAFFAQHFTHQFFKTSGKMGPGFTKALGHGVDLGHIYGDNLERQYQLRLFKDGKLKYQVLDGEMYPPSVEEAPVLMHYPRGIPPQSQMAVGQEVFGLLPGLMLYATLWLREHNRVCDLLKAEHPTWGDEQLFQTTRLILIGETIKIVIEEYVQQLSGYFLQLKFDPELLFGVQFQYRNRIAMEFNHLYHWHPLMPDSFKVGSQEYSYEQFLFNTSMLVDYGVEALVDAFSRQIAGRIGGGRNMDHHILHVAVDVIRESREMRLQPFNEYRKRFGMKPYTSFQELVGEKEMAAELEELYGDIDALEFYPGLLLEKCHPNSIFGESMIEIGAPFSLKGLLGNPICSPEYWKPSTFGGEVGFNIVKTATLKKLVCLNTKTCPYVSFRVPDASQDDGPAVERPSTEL
# Sequence of Cytochrome P450 2D6 (P10635 whole entry): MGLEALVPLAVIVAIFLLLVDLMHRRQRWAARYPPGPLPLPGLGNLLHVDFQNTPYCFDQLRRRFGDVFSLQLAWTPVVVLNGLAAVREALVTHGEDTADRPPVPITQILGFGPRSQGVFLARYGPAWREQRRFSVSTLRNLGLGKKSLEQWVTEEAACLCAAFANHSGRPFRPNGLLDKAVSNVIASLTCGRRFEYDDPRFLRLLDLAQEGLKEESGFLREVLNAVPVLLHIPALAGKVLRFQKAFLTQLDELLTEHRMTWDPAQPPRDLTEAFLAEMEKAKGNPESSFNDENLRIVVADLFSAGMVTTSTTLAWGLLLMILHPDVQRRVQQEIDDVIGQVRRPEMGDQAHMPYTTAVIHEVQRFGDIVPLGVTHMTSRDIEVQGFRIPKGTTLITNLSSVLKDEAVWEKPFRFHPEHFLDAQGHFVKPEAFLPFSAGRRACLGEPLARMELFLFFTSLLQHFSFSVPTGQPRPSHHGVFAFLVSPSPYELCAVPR
# Sequence of Beta-3 adrenergic receptor (P13945 whole entry): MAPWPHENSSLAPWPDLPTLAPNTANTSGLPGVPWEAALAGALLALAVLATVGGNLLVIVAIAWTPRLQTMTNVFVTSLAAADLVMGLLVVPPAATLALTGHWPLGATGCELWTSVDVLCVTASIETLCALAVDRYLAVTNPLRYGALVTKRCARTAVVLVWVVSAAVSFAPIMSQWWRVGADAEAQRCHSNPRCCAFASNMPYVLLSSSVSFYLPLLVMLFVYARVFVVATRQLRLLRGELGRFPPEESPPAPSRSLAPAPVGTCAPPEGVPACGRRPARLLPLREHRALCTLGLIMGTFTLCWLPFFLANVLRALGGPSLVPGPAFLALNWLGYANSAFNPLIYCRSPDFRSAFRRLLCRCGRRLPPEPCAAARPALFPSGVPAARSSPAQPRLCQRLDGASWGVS
# Sequence of Vascular endothelial growth factor receptor 1 (P17948 whole entry): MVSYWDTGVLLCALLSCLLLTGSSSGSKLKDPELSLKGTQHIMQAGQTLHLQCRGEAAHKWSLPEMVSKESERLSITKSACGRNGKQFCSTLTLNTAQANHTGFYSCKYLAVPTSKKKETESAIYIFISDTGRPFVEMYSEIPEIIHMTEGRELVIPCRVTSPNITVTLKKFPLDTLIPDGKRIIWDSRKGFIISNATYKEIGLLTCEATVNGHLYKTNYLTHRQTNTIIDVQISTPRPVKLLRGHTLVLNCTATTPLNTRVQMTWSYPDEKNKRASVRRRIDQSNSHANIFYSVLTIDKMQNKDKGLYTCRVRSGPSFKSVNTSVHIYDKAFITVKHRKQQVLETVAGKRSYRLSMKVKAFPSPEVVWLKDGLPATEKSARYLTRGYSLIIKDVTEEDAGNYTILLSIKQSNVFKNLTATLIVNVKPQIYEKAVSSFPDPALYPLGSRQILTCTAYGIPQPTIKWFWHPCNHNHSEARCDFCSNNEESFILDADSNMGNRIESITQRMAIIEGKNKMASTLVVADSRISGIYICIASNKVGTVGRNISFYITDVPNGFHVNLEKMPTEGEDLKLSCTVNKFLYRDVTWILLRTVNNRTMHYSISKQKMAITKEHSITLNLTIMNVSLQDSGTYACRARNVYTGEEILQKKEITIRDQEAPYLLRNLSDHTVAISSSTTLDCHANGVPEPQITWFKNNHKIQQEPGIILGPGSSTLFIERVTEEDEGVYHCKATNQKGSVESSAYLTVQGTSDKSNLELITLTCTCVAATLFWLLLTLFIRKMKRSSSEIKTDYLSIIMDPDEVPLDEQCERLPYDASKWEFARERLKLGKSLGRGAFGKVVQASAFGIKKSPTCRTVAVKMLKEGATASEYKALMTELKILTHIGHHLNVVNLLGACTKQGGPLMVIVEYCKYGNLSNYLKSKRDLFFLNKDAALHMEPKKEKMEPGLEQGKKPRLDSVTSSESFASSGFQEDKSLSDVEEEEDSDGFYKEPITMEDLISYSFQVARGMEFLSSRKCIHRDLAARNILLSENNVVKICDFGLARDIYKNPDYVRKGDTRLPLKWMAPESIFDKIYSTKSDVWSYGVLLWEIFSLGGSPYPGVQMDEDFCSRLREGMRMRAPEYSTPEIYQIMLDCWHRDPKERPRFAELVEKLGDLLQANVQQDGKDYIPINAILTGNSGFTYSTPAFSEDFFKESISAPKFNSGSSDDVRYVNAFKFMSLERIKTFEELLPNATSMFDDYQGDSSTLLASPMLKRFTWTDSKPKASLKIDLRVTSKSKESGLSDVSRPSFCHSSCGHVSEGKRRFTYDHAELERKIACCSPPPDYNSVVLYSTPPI
SMILES,IC50 ([1]; reticulocytes),IC50 [2],IC50 ([3]; hek293),IC50 (Cathepsin G),IC50 [4],Ki [4],IC50 (Calcitonin receptor),IC50 (Cytochrome P450 2D6),Ki (Cytochrome P450 2D6),IC50 ([5]; platelet),IC50 ([1]; read-out: IC50),IC50 ([3]; read-out: IC50),Ki ([3]; read-out: Ki),IC50 ([5]; read-out: IC50)
CC(C)(C)NC(=O)[C@@H]1C[C@@H]2CCCC[C@@H]2CN1C[C@@H](O)[C@H](Cc1ccccc1)NC(=O)[C@H](CC(N)=O)NC(=O)c1ccc2ccccc2n1,Not Active,Not Active,Not Active,Not Active,Not Active,Not Active,Not Active,Not Active,Not Active,Not Active,–,–,–,–
CC(=O)[C@@]1(O)CC[C@H]2[C@@H]3C[C@H](C)C4=CC(=O)CC[C@]4(C)[C@H]3CC[C@@]21C,Not Active,Not Active,Not Active,Not Active,Not Active,Not Active,Not Active,Not Active,Not Active,Not Active,–,–,–,–
N[C@@H](Cc1ccc(N(CCCl)CCCl)cc1)C(=O)O,Not Active,Not Active,Not Active,Not Active,Not Active,Not Active,Not Active,Not Active,Not Active,Not Active,–,–,–,–
CCCCc1oc2ccccc2c1C(=O)c1cc(I)c(OCCN(CC)CC)c(I)c1 [AMIODARONE],Not Active,Not Active,–,Not Active,–,–,Not Active,–,–,Not Active,–,–,–,–
OCCN(CCO)c1nc(N2CCCCC2)c2nc(N(CCO)CCO)nc(N3CCCCC3)c2n1 [DIPYRIDAMOLE],–,Not Active,Not Active,Not Active,Not Active,Not Active,Not Active,Not Active,Not Active,Not Active,6.96 µM,–,–,–
Cc1oncc1C(=O)Nc1ccc(C(F)(F)F)cc1 [LEFLUNOMIDE],Not Active,Not Active,Not Active,Not Active,Not Active,Not Active,Not Active,Not Active,Not Active,Not Active,–,–,–,–
c1ccc([C@H]2CN3CCSC3=N2)cc1 [LEVAMISOLE],Not Active,Not Active,Not Active,Not Active,Not Active,Not Active,Not Active,Not Active,Not Active,Not Active,–,–,–,–
N[C@@H](Cc1ccc(O)c(O)c1)C(=O)O [LEVODOPA],–,Not Active,Not Active,Not Active,Not Active,Not Active,Not Active,Not Active,Not Active,Not Active,2.26 µM,–,–,–
N[C@@H](Cc1cc(I)c(Oc2ccc(O)c(I)c2)c(I)c1)C(=O)O [LIOTHYRONINE],Not Active,Not Active,Not Active,Not Active,–,–,Not Active,Not Active,Not Active,Not Active,–,–,–,–
O=NN(CCCl)C(=O)NC1CCCCC1 [LOMUSTINE],Not Active,Not Active,Not Active,Not Active,Not Active,Not Active,Not Active,Not Active,Not Active,Not Active,–,–,–,–
CCOC(=O)N1CCC(=C2c3ccc(Cl)cc3CCc3cccnc32)CC1 [LORATADINE],Not Active,Not Active,Not Active,Not Active,Not Active,Not Active,Not Active,–,–,Not Active,–,–,–,–
Cn1ccnc1S [METHIMAZOLE],Not Active,Not Active,Not Active,Not Active,Not Active,Not Active,Not Active,Not Active,Not Active,Not Active,–,–,–,–
CC[C@@H](CO)NC(=O)[C@@H]1C=C2c3cccc4[nH]cc(c34)C[C@H]2N(C)C1 [METHYLERGONOVINE],Not Active,Not Active,Not Active,Not Active,Not Active,Not Active,Not Active,–,–,Not Active,–,–,–,–
COc1nc(C)nc(Cl)c1NC1=NCCN1 [MOXONIDINE],Not Active,Not Active,Not Active,Not Active,Not Active,Not Active,Not Active,Not Active,Not Active,Not Active,–,–,–,–
COc1c(C)c2c(c(O)c1C/C=C(\C)CCC(=O)O)C(=O)OC2 [MYCOPHENOLIC ACID],Not Active,Not Active,Not Active,Not Active,Not Active,Not Active,Not Active,Not Active,Not Active,Not Active,–,–,–,–
O=c1ncn2nc(Sc3ccc(F)cc3F)ccc2c1-c1c(Cl)cccc1Cl [NEFLAMAPIMOD],Not Active,Not Active,Not Active,Not Active,Not Active,Not Active,Not Active,Not Active,Not Active,Not Active,–,–,–,–
CN1CCN(CCCN2c3ccccc3Sc3ccc(Cl)cc32)CC1 [PROCHLORPERAZINE],Not Active,Not Active,Not Active,Not Active,–,–,Not Active,–,–,Not Active,–,–,–,–
CO[C@H]1/C=C/O[C@@]2(C)Oc3c(C)c(O)c4c(O)c(c(/C=N/N5CCN(C)CC5)c(O)c4c3C2=O)NC(=O)/C(C)=C\C=C\[C@H](C)[C@H](O)[C@@H](C)[C@@H](O)[C@@H](C)[C@H](OC(C)=O)[C@@H]1C [RIFAMPIN],–,Not Active,Not Active,Not Active,Not Active,Not Active,Not Active,Not Active,Not Active,Not Active,2.95 µM,–,–,–
Nc1nc2ccc(OC(F)(F)F)cc2s1 [RILUZOLE],Not Active,Not Active,Not Active,Not Active,Not Active,Not Active,Not Active,–,–,Not Active,–,–,–,–
Cc1nc2n(c(=O)c1CCN1CCC(c3noc4cc(F)ccc34)CC1)CCCC2 [RISPERIDONE],Not Active,Not Active,Not Active,Not Active,–,–,Not Active,–,–,Not Active,–,–,–,–
CSc1ccc(/C=C2/C(C)=C(CC(=O)O)c3cc(F)ccc32)cc1 [SULINDAC SULFIDE],Not Active,Not Active,Not Active,Not Active,Not Active,Not Active,Not Active,Not Active,Not Active,–,–,–,–,–
Nc1c2c(nc3ccccc13)CCCC2 [TACRINE],Not Active,Not Active,Not Active,Not Active,Not Active,Not Active,Not Active,–,–,Not Active,–,–,–,–
CC/C(=C(\c1ccccc1)c1ccc(OCCN(C)C)cc1)c1ccccc1 [TAMOXIFEN],Not Active,Not Active,–,Not Active,–,–,Not Active,–,–,–,–,7.7 µM,5.78 µM,4.39 µM
CC(C)N1CCN(c2ccc(OCC3COC(Cn4cncn4)(c4ccc(Cl)cc4Cl)O3)cc2)CC1 (stereo not given) [TERCONAZOLE],–,Not Active,–,Not Active,–,–,Not Active,Not Active,Not Active,Not Active,2.45 µM,–,–,–
